# Patent US20110124842A1 (priority 2003, published 2011)
# Where two headings read alike, the source gives them in different places.
# Assays:
# [1] = tested on: Fab 4E10; assay: Surface plasmon resonance (Biacore 2000), Fab 4E10 on CM5 chip; type: binding, human
# Protocol: The affinitiefs of the peptide analogs for 4E10 were also measured by surface plasmon resonance. Surface plasmon resonance experiments were performed using a Biacore 2000 instrument (Uppsala, Sweden). Around 2,200 response units (RU) of Fab 4E10 were coated on CM5 chips. The carboxyl groups on the chip were activated with 1-ethyl-3-(3-dimethylaminopropyl)carbodiimide hydrochloride (EDC) and N-hydroxysuccinimide (NHS). Fifty micrograms of Fab were diluted in 10 mM sodium acetate pH 4.5; a flow rate of 5 μl/min was used. Unreacted carboxyl groups were blocked with 1M ethanolamine at pH 8.5. The control was treated in the same fashion without any antibody present. Different amounts of free peptides were then passed over the surfaces at 30 or 50 μl/min for 2 min. Regeneration was done in HPS-EP buffer, 0.25 NaCl (Biacore) in 10 minutes. The amount of salt was increased compared to the commercial buffer to reduce the non-specific binding. For data evaluation, the BIAevaluation software was used. RI and Rmax were controlled, double referencing were done (0 concentration and start point). Analyses were performed to achieve the best curve fitting and small chi^2 (<1).
# Surface plasmon resonance experiments were performed using a Biacore 2000 instrument (Uppsala, Sweden).
# Chip preparation: around 2,200 response units (RU) of Fab 4E10 were coated on CM5 chips. The carboxyl groups on the chip were activated with 1-ethyl-3-(3-dimethylaminopropyl) carbodiimide hydrochloride (EDC) and N-hydroxysuccinimide (NHS). Fifty micrograms of Fab was diluted in 10 mM sodium acetate pH 4.5; a flow rate of 5 μl/min was used. Unreacted carboxyl groups were blocked with 1M ethanolamine at pH 8.5. The control was treated in the same fashion without any antibody present.
# Experiment: different amounts of free peptides were then passed over the surfaces at 30 or 50 μl/min for 2 min. Regeneration was done in HPS-EP buffer, 0.25 NaCl (Biacore) in 10 min. The amount of salt was increased compared to the commercial buffer to reduce the non-specific binding.
# Data evaluation: the BIAevaluation software was used. RI and Rmax were controlled, double referencing were done (0 concentration and start point). Analyses were performed to achieve the best curve fitting and small chi^2 (<1).
# [2] = tested on: HIV-1 JR-CSF; type: cell-based; settings: JRCSF; peptide at 30 μg/ml; FIG. 49
# Protocol: (§1) FIG. 49 is a bar graph showing the ability of peptide […]-NH2 (SEQ ID NO: 8) to block neutralization of HIV-1 by 4E10. Replication competent HIV-1 (SF 162 and JR-CSF), produced in human PBMCs, were assayed for neutralization by 4E10 (100 μg/ml) in TZM-b1 cells, in the presence (white bars) or absence (black bars) of an excess of peptide.
# (§2) To further investigate the interaction of peptide analogs and 4E10, the inhibitory effect of the best analogs on neutralization by 4E10 was assessed. Neutralization assays were performed in two different formats. In the first, replication competent HIV-1SF162 was assayed for neutralization using TZM-b1 cells as indicator cells (Wei, X., 2002). Alternatively, a pseudotype assay was used in which recombinant HIV-1JR-CSF virions, competent for a single round of infection, were generated using the luciferase reporter plasmid pNL4-3.Luc.R-E-, as described previously (Connor, R. I., 1995; Zwick, M. B., 2003), and the pseudovirus assayed for neutralization using U87.CD4.CCR5 cells as target cells (Bjorndal, A., 1997). In all cases, the competitor peptide ([…]-NH2; SEQ ID NO: 8) and IgG 4E10 were pre-incubated for 30 minutes at 37° C. […] The degree of virus neutralization was determined as a percentage reduction of viral infectivity against an Ab-free control. […]
# [3] = tested on: HIV-1SF162; type: cell-based; settings: peptide at 30 μg/ml, FIG. 49
# Protocol: as §1, §2
# [4] = Circular dichroism spectroscopy of free peptides in solution (helicity); type: physicochemical; settings: FIG. 48
# Protocol: To determine whether the imposed constraints increased the helicity of the peptides, each one was analyzed in solution using circular dichroism (CD) spectroscopy (FIG. 48). An Aviv spectropolarimeter Model 203-02 was used, with cells of 0.1 cm in length, a wavelength step of 0.5 nm and a bandwidth of 1.0 nm. One to three scans were reported. The exact peptide concentrations were determined by UV measurements at 280 nm on a Gison UV detector, model 116.
sequence,measurement,setting,value
"NWFDITNWLWYIKKKK [Peptide 94-1, NWFDITNWLWYIKKKK-NH2]",higher affinity of 4E10 than to peptide 33-1,[1]; Table 7,about 17 fold
same,koff,[1]; Table 7,0.0138 s⁻¹
same,kon,[1]; Table 7,691000 M⁻¹ s⁻¹
same,Kd,"[1]; Table 7, 4E10 peptide epitopes, read-out: Kd",0.02 µM
same,Kd,[1]; read-out: Kd (Biacore),0.018 µM
same,block of neutralization by 4E10,[2],could block the neutralization
same,block of neutralization by 4E10,[3],could block the neutralization
same,helicity in solution by CD,[4],more helical than 84-1
